The text below walks through data of PMC10601436 (ACS Omega, 2023).

By IC50 is commonly meant the concentration at which inhibition is half-maximal. Higher therefore signals weaker potency in that assay.

Peptide text beside a SMILES is read from it.

The target in this assay is hDPP-IV (Homo sapiens, UniProt P27487). Description: DPP-IV inhibitory assay. Format: biochemical.
Sequence of hDPP-IV (P27487 whole entry): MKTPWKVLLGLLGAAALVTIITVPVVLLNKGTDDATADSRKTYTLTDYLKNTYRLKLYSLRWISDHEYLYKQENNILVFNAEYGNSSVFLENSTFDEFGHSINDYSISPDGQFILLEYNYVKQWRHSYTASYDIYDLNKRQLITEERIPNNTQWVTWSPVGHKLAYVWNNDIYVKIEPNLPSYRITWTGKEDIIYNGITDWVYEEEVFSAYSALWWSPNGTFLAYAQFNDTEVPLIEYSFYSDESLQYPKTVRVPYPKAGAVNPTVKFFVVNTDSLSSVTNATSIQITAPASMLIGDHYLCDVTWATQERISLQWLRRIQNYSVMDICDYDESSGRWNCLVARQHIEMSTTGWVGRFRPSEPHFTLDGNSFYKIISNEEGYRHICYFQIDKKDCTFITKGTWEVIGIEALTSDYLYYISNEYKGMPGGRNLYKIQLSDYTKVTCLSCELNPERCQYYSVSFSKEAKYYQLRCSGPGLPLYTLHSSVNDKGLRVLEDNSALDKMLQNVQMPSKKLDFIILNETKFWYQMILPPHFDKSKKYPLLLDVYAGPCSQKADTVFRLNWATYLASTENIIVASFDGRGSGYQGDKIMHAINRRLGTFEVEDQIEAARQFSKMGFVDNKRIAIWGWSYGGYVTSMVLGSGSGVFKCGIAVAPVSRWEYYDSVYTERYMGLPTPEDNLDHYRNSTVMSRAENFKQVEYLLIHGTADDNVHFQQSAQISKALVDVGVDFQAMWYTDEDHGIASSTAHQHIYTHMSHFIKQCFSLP
`N[C@@H](Cc1c[nH]c2ccccc12)C(=O)N1CCC[C@H]1C(=O)N[C@@H](Cc1ccccc1)C(=O)O` [WPF] (H-Trp-Pro-Phe-OH): half-maximal inhibition (IC50) was put at 286 µM. The value for `N[C@@H](Cc1c[nH]c2ccccc12)C(=O)N1CCC[C@H]1C(=O)N[C@@H](Cc1c[nH]cn1)C(=O)O` [WPH] (H-Trp-Pro-His-OH) was 315 µM; that for `CC[C@H](C)[C@H](NC(=O)[C@H](CCCNC(=N)N)NC(=O)[C@@H](N)Cc1c[nH]c2ccccc12)C(=O)O` [WRI] (H-Trp-Arg-Ile-OH) was 330 µM.

As for `N=C(N)NCCC[C@H](NC(=O)[C@@H](N)Cc1c[nH]c2ccccc12)C(=O)NCC(=O)O` [WRG] (H-Trp-Arg-Gly-OH), half-maximal inhibition (IC50) was put at 270 µM. The value for `CC(C)[C@H](NC(=O)[C@@H](N)Cc1c[nH]c2ccccc12)C(=O)N[C@@H](CCCCN)C(=O)O` [WVK] (H-Trp-Val-Lys-OH) was 331 µM; that for `N=C(N)NCCC[C@H](NC(=O)[C@@H](N)Cc1c[nH]c2ccccc12)C(=O)N[C@@H](CCC(=O)O)C(=O)O` [WRE] (H-Trp-Arg-Glu-OH) was 160 µM. The value for `CC(C)[C@H](NC(=O)[C@@H]1CCCN1C(=O)[C@@H](N)Cc1c[nH]c2ccccc12)C(=O)O` [WPV] (H-Trp-Pro-Val-OH) was 511 µM; that for `CC[C@H](C)[C@H](NC(=O)[C@H](C)NC(=O)[C@@H](N)Cc1c[nH]c2ccccc12)C(=O)O` [WAI] (H-Trp-Ala-Ile-OH) was 199 µM. The value for `N=C(N)NCCC[C@H](NC(=O)[C@@H](N)Cc1c[nH]c2ccccc12)C(=O)N[C@@H](CC(N)=O)C(=O)O` [WRN] (H-Trp-Arg-Asn-OH) was 313 µM; that for `N[C@@H](Cc1c[nH]c2ccccc12)C(=O)N1CCC[C@H]1C(=O)N[C@@H](CCC(=O)O)C(=O)O` [WPE] (H-Trp-Pro-Glu-OH) was 353 µM. In turn, `N[C@@H](Cc1c[nH]c2ccccc12)C(=O)N1CCC[C@H]1C(=O)N[C@@H](CO)C(=O)O` [WPS] (H-Trp-Pro-Ser-OH) registered a half-inhibitory concentration (IC50) of 588 µM.

`N=C(N)NCCC[C@H](NC(=O)[C@@H](N)Cc1c[nH]c2ccccc12)C(=O)N[C@@H](Cc1ccc(O)cc1)C(=O)O` [WRY] (H-Trp-Arg-Tyr-OH): the IC50 is 297 µM.

For `CC(C)C[C@H](NC(=O)[C@H](CCCNC(=N)N)NC(=O)[C@@H](N)Cc1c[nH]c2ccccc12)C(=O)O` [WRL] (H-Trp-Arg-Leu-OH), the IC50 came out at 151 µM. The value for `N=C(N)NCCC[C@H](NC(=O)[C@@H](N)Cc1c[nH]c2ccccc12)C(=O)N[C@@H](CCC(N)=O)C(=O)O` [WRQ] (H-Trp-Arg-Gln-OH) was 286 µM. Next, `CC(C)[C@H](NC(=O)[C@@H](N)Cc1c[nH]c2ccccc12)C(=O)N1CCC[C@H]1C(=O)O` [WVP] (H-Trp-Val-Pro-OH): 402 µM; `C[C@H](NC(=O)[C@@H](N)Cc1c[nH]c2ccccc12)C(=O)N[C@@H](Cc1ccc(O)cc1)C(=O)O` [WAY] (H-Trp-Ala-Tyr-OH): 117 µM; `NC(=O)C[C@H](NC(=O)[C@@H]1CCCN1C(=O)[C@@H](N)Cc1c[nH]c2ccccc12)C(=O)O` [WPN] (H-Trp-Pro-Asn-OH): 129 µM. Next, `C[C@@H](O)[C@H](NC(=O)[C@H](CCCNC(=N)N)NC(=O)[C@@H](N)Cc1c[nH]c2ccccc12)C(=O)O` [WRT] (H-Trp-Arg-Thr-OH): 556 µM; `CC(C)[C@H](NC(=O)[C@H](CCCNC(=N)N)NC(=O)[C@@H](N)Cc1c[nH]c2ccccc12)C(=O)O` [WRV] (H-Trp-Arg-Val-OH): 541 µM; `CSCC[C@H](NC(=O)[C@H](C)NC(=O)[C@@H](N)Cc1c[nH]c2ccccc12)C(=O)O` [WAM] (H-Trp-Ala-Met-OH): 330 µM. Turning to `N[C@@H](Cc1c[nH]c2ccccc12)C(=O)N1CCC[C@H]1C(=O)N[C@@H](Cc1ccc(O)cc1)C(=O)O` [WPY] (H-Trp-Pro-Tyr-OH), the IC50 came to 304 µM.

As for `CC[C@H](C)[C@H](N)C(=O)N1CCC[C@H]1C(=O)N[C@H](C(=O)N1CCC[C@H]1C(=O)N[C@H](C(=O)O)[C@@H](C)CC)[C@@H](C)CC` [IPIPI] (H-IPIPI-OH), inhibition was half-maximal at 47.5 µM (IC50). Next, `CC(C)[C@H](NC(=O)[C@H](C)NC(=O)[C@@H](N)Cc1c[nH]c2ccccc12)C(=O)O` [WAV] (H-Trp-Ala-Val-OH): 250 µM. The value for `C[C@H](NC(=O)[C@@H](N)Cc1c[nH]c2ccccc12)C(=O)N[C@@H](CS)C(=O)O` [WAC] (H-Trp-Ala-Cys-OH) was 283 µM; that for `N=C(N)NCCC[C@H](NC(=O)[C@@H](N)Cc1c[nH]c2ccccc12)C(=O)N[C@@H](Cc1c[nH]cn1)C(=O)O` [WRH] (H-Trp-Arg-His-OH) was 277 µM; that for `C[C@H](NC(=O)[C@@H](N)Cc1c[nH]c2ccccc12)C(=O)N[C@@H](Cc1ccccc1)C(=O)O` [WAF] (H-Trp-Ala-Phe-OH) was 153 µM. The value for `C[C@H](NC(=O)[C@@H](N)Cc1c[nH]c2ccccc12)C(=O)N[C@@H](CCCNC(=N)N)C(=O)O` [WAR] (H-Trp-Ala-Arg-OH) was 665 µM. Consider `N[C@@H](Cc1c[nH]c2ccccc12)C(=O)N1CCC[C@H]1C(=O)N[C@@H](CC(=O)O)C(=O)O` [WPD] (H-Trp-Pro-Asp-OH), for which the IC50 was found to be 481 µM. Compound `N=C(N)NCCC[C@H](NC(=O)[C@@H](N)Cc1c[nH]c2ccccc12)C(=O)N[C@@H](CO)C(=O)O` [WRS] (H-Trp-Arg-Ser-OH) gave an IC50 of 265 µM. `C[C@H](NC(=O)[C@@H](N)Cc1c[nH]c2ccccc12)C(=O)N1CCC[C@H]1C(=O)O` [WAP] (H-Trp-Ala-Pro-OH) registered a 50% inhibitory concentration (IC50) of 441 µM.

`N=C(N)NCCC[C@H](NC(=O)[C@@H](N)Cc1c[nH]c2ccccc12)C(=O)N[C@@H](Cc1ccccc1)C(=O)O` [WRF] (H-Trp-Arg-Phe-OH): half-maximal inhibition (IC50) was put at 257 µM. `CC(C)[C@H](NC(=O)[C@@H](N)Cc1c[nH]c2ccccc12)C(=O)N[C@H](C(=O)O)[C@@H](C)O` [WVT] (H-Trp-Val-Thr-OH) yielded an IC50 of 336 µM. `CC(C)[C@H](NC(=O)[C@@H](N)Cc1c[nH]c2ccccc12)C(=O)N[C@@H](CS)C(=O)O` [WVC] (H-Trp-Val-Cys-OH) displayed a 50% inhibitory concentration (IC50) of 232 µM.

The compound `C[C@@H](O)[C@H](NC(=O)[C@@H]1CCCN1C(=O)[C@@H](N)Cc1c[nH]c2ccccc12)C(=O)O` [WPT] (H-Trp-Pro-Thr-OH) displayed an IC50 of 435 µM. The value for `CC(C)[C@H](NC(=O)[C@@H](N)Cc1c[nH]c2ccccc12)C(=O)NCC(=O)O` [WVG] (H-Trp-Val-Gly-OH) was 341 µM; that for `CSCC[C@H](NC(=O)[C@@H](NC(=O)[C@@H](N)Cc1c[nH]c2ccccc12)C(C)C)C(=O)O` [WVM] (H-Trp-Val-Met-OH) was 317 µM. Next, `C[C@H](NC(=O)[C@H](C)NC(=O)[C@@H](N)Cc1c[nH]c2ccccc12)C(=O)O` [WAA] (H-Trp-Ala-Ala-OH): 275 µM; `CC(C)[C@H](NC(=O)[C@@H](N)Cc1c[nH]c2ccccc12)C(=O)N[C@@H](CCC(=O)O)C(=O)O` [WVE] (H-Trp-Val-Glu-OH): 193 µM. The value for `CC(C)C[C@H](NC(=O)[C@@H]1CCCN1C(=O)[C@@H](N)Cc1c[nH]c2ccccc12)C(=O)O` [WPL] (H-Trp-Pro-Leu-OH) was 461 µM. `C[C@H](NC(=O)[C@@H](N)Cc1c[nH]c2ccccc12)C(=O)N[C@@H](Cc1c[nH]c2ccccc12)C(=O)O` [WAW] (H-Trp-Ala-Trp-OH) came in with an IC50 of 104 µM.

`N[C@@H](Cc1c[nH]c2ccccc12)C(=O)N1CCC[C@H]1C(=O)NCC(=O)O` [WPG] (H-Trp-Pro-Gly-OH) came in with an IC50 of 135 µM. The value for `C[C@H](NC(=O)[C@@H](N)Cc1c[nH]c2ccccc12)C(=O)N[C@H](C(=O)O)[C@@H](C)O` [WAT] (H-Trp-Ala-Thr-OH) was 296 µM.

`NC(=O)CC[C@H](NC(=O)[C@@H]1CCCN1C(=O)[C@@H](N)Cc1c[nH]c2ccccc12)C(=O)O` [WPQ] (H-Trp-Pro-Gln-OH) showed an IC50 of 196 µM.

`CC(C)[C@H](NC(=O)[C@@H](NC(=O)[C@@H](N)Cc1c[nH]c2ccccc12)C(C)C)C(=O)O` [WVV] (H-Trp-Val-Val-OH): the IC50 is 275 µM.

Regarding `N=C(N)NCCC[C@H](NC(=O)[C@@H](N)Cc1c[nH]c2ccccc12)C(=O)N1CCC[C@H]1C(=O)O` [WRP] (H-Trp-Arg-Pro-OH), inhibition was half-maximal at 742 µM (IC50). `C[C@H](NC(=O)[C@@H](N)Cc1c[nH]c2ccccc12)C(=O)N[C@@H](CC(=O)O)C(=O)O` [WAD] (H-Trp-Ala-Asp-OH) showed an IC50 of 433 µM. Take `CC(C)[C@H](N)C(=O)N1CCC[C@H]1C(=O)N[C@H](C(=O)N1CCC[C@H]1C(=O)N[C@@H](Cc1c[nH]cn1)C(=O)O)C(C)C` [VPVPH] (H-VPVPH-OH): the IC50 worked out at 51.1 µM. In the case of `C[C@H](NC(=O)[C@@H](N)Cc1c[nH]c2ccccc12)C(=O)N[C@@H](CCC(N)=O)C(=O)O` [WAQ] (H-Trp-Ala-Gln-OH), the IC50 amounted to 289 µM. Next, `N=C(N)NCCC[C@H](NC(=O)[C@@H](N)Cc1c[nH]c2ccccc12)C(=O)N[C@@H](CC(=O)O)C(=O)O` [WRD] (H-Trp-Arg-Asp-OH): 204 µM; `N[C@@H](Cc1c[nH]c2ccccc12)C(=O)N1CCC[C@H]1C(=O)N[C@@H](CS)C(=O)O` [WPC] (H-Trp-Pro-Cys-OH): 739 µM.

`CSCC[C@H](NC(=O)[C@@H]1CCCN1C(=O)[C@@H](N)Cc1c[nH]c2ccccc12)C(=O)O` [WPM] (H-Trp-Pro-Met-OH) yielded a concentration for half-maximal inhibition (IC50) of 219 µM.

With `CC(C)C[C@H](NC(=O)[C@@H](NC(=O)[C@@H](N)Cc1c[nH]c2ccccc12)C(C)C)C(=O)O` [WVL] (H-Trp-Val-Leu-OH), 399 µM corresponded to half-maximal inhibition (IC50). Next, `C[C@H](NC(=O)[C@@H](N)Cc1c[nH]c2ccccc12)C(=O)N[C@@H](CC(N)=O)C(=O)O` [WAN] (H-Trp-Ala-Asn-OH): 302 µM; `N=C(N)NCCC[C@H](NC(=O)[C@@H](N)Cc1c[nH]c2ccccc12)C(=O)N[C@@H](Cc1c[nH]c2ccccc12)C(=O)O` [WRW] (H-Trp-Arg-Trp-OH): 603 µM. The value for `CC(C)[C@H](NC(=O)[C@@H](N)Cc1c[nH]c2ccccc12)C(=O)N[C@@H](Cc1ccc(O)cc1)C(=O)O` [WVY] (H-Trp-Val-Tyr-OH) was 215 µM. Next, `N=C(N)NCCC[C@H](NC(=O)[C@@H](N)Cc1c[nH]c2ccccc12)C(=O)N[C@@H](CS)C(=O)O` [WRC] (H-Trp-Arg-Cys-OH): 210 µM.
